Reference: patent US4923892A, “Tricyclic aromatic compounds” (Burroughs Wellcome Co., priority 1985, dated 1990)

Tests used:
[1] = test system: histamine; assay: In vivo antihistaminic activity: protection of guinea pigs against histamine aerosol challenge; set-up: species or system Guinea pigs (Hartley, male)
[2] = test system: Compound 48/80 Induced Anaphylactoid Reaction; assay: Anaphylactoid activity: inhibition of compound 48/80 induced anaphylactoid reaction in rats; type: in vivo, Wister rats; conditions: Rattus norvegicus, po, dosed 2 hours before compound 48/80 (2 mg/kg i.v.), propranolol 5 mg/kg i.p., at least 50 animals, read-out: ED50, dose providing 50% protection against death induced by compound 48/80
Protocol: Non-fasted, Wister rats (180-300 g) were dosed with the test compound (i.p. or p.o.) 2 hours before compound 48/80 challenge. One hour prior to challenge, 5 mg/kg i.p. of propranolol was administered. The anaphylactoid inducing agent, compound 48/80 which is well known in the art of pharmacology, was given intravenously at 2 mg/kg and the animals were monitored for symptoms of respiratory distress.
Data were analyzed by Probit determinations. The response was quantitated by determining the dose of test compound which protected 50% of the animals from death at a given time point.
Agents which block the effects of compound 48/80 are commonly classified as inhibitors of anaphylactic mediators or inhibitors of the release of anaphylic mediators.

[3] = LD50 in rats; conditions: rat, in vivo

For `CN(C)CC/C=C1/c2ccccc2COc2ccc(C(=O)O)cc21` [Compound 1, (Z)-11-(3-(Dimethylamino)propylidene)-6,11-dihydrodibenz[b,e]oxepin-2-carboxylic acid], the ED50 ([1]; Cavia porcellus, po, 4 hr post dosing, guinea pigs, 0.25% histamine aerosol, at least 40 animals) was 0.15 mg/kg, the “antihistaminic activity in vivo” value ([1]; in words) was “extremely good antihistaminic activity in vivo” and the “duration of antihistaminic activity” value ([1]; in words) was “very long durations of antihistamic activity”. The ED50 [2] was 1.1 mg/kg, the LD50 ([3]; ip) was roughly 210 mg/kg and the LD50 ([3]; po) was greater than 500 mg/kg.

`CN(C)CCC=C1c2ccccc2COc2ccccc21` [Doxepin, 11-(3-(dimethylamino)propylidene)-6,11-dihydrodibenz[b,e]oxepin] gave an ED50 [2] of 0.15 mg/kg.

Compound `Cc1ccc(/C(=C\CN2CCCC2)c2ccccn2)cc1` [Triprolidine] has an ED50 [2] greater than 30 mg/kg.
